Test results: patent US20120277257A1, “Methods of Treating Diseases, Pharmaceutical Compositions, and Pharmaceutical Dosage Forms” (MYREXIS, INC., priority 2009, published 2012)

Experiments:
[1] = Phase I clinical trial, dose limiting toxicities; format: in vivo, human; conditions: 50 to 340 mg/m^2 oral, 1 to 13 (28-day) cycles
Procedure: A human clinical study was initiated at a starting dose of 50 mg/m^2. Subjects had recurrent cancer refractory to available systemic therapy. Compound 1 was administered daily by mouth in tablet form for 21 consecutive days in a 28 day cycle to each enrolled subject. For determination of drug levels in humans, plasma was collected prior to drug administration and 0.5, 1, 2, 3, 4, 6, 8, and 24 hours post-dosing on cycle 1 day 1, and cycle 1 day 21. Plasma was collected pre-dose only for cycle 1 day 8. Peripheral blood mononuclear cells (PBMCs) were collected prior to drug administration, and typically 8 and 24 hours post-dose on cycle 1 day 1 and cycle 1 day 21 in order to quantify Hsp70 protein levels as an exploratory biomarker. Patients were men and women with metastatic cancer, ranged in age from 45 to 85 years, and received doses ranging from 50 mg/m^2 to 340 mg/m^2, with a total daily dose of 100-740 mg (Tables 2A and 2B).

[2] = test system: B16 melanoma allograft; assay: B16 melanoma allograft; format: in vivo, mice; conditions: 200 mg/kg oral, daily for 8 days
[3] = test system: NCI-N87 Her2+ gastric cancer; assay: NCI-N87 (Her2+) gastric cancer xenograft in athymic nude mice; format: in vivo; conditions: for TGI (tumor growth inhibition): daily for 21 days
[4] = test system: Hsp70 RNA; assay: Hsp70 RNA induction in liver and tumor of N-87 xenografted mice (qRT-PCR); format: in vivo; conditions: single oral dose 200 mg/kg
Procedure: Xenografted mice bearing N-87 tumors (median volume ˜425 mm^3) were given a single oral dose of Compound 1 (200 mg/kg). Blood, tumor and liver samples (n=6) were collected at 0.25, 0.5, 1, 2, 4, 8, 12, 24, 36 and 48 h post-dose and used to determine Compound 1 concentrations in the plasma and Hsp70 RNA levels in tumor and liver samples (See FIG. 6). Hsp70 RNA levels were determined by qRT-PCR.

C[C@H](O)C(=O)N1CCC(CCn2c(Sc3cc4c(cc3Br)OCO4)nc3c(N)ncnc32)CC1 [Compound 1, (2S)-1-[4-(2-{6-amino-8-[(6-bromo-1,3-benzodioxol-5-yl)thio]-9H-purin-9-yl}ethyl)piperidin-1-yl]-1-oxopropan-2-ol]
dose limiting toxicities [1]: No dose limiting toxicities have been reported to date
TGI (tumor growth inhibition) [2]: 50% TGI
TGI (tumor growth inhibition) ([3]; 100 mg/kg oral, Day 21, p = 0.003): 82% TGI (p = 0.003) Day 21
TGI (tumor growth inhibition) ([3]; 125 mg/kg oral): 100% TGI (125 mg/kg)
tumor regression ([3]; 200 mg/kg oral, daily for 21 days (50, 75, 125, 200 mg/kg study)): 50% regression (200 mg/kg);
Hsp70 RNA induction in liver ([4]; 4 hours post-dose): ~70 fold
Hsp70 RNA induction in tumor tissue ([4]; 4 hours post-dose): ~110 fold
time at which Hsp70 RNA induction reverts to baseline ([4]; post-dose): ≤ 12 h
